Test results from the supplement of paper PMC10307832.

Legend:
Experiment in all cases: relative viability (nuclei count vs DMSO), 5 days (fraction); higher = more cells survive
GSK-J4 + Crizotinib = compound: CCOC(=O)CCNc1cc(N2CCc3ccccc3CC2)nc(-c2ccccn2)n1 [GSK-J4] + C[C@@H](Oc1cc(-c2cnn(C3CCNCC3)c2)cnc1N)c1c(Cl)ccc(F)c1Cl [Crizotinib] (partner 1 µM)
Procedure, shortened: (§1)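 Five library-drug doses in √10 steps were combined with a fixed anchor-drug dose, or a single drug was given alone, by pin tool to lung cancer cell lines in 1536-well plates the day after seeding. Nuclei were stained and counted after 5 days. Relative viability is the nuclei count in treated wells over that in vehicle wells, taken as the median of duplicate plates.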

GSK-J4 + Palbociclib = compound: CCOC(=O)CCNc1cc(N2CCc3ccccc3CC2)nc(-c2ccccn2)n1 [GSK-J4] + CC(=O)c1c(C)c2cnc(Nc3ccc(N4CCNCC4)cn3)nc2n(C2CCCC2)c1=O [Palbociclib] (partner 0.5 µM)
Procedure, shortened: as §1

AZ3146 + Vorinostat = compound: CN1CCC(CC1)OC2=CC(=C(C=C2)NC3=NC=C4C(=N3)N(C(=O)N4C)C5CCCC5)OC [AZ3146] + O=C(CCCCCCC(=O)Nc1ccccc1)NO [Vorinostat] (partner 1 µM)
Procedure, shortened: as §1

AZ3146 + Bortezomib = compound: CN1CCC(CC1)OC2=CC(=C(C=C2)NC3=NC=C4C(=N3)N(C(=O)N4C)C5CCCC5)OC [AZ3146] + CC(C)C[C@H](NC(=O)[C@H](Cc1ccccc1)NC(=O)c1cnccn1)B(O)O [Bortezomib] (partner 0.002 µM)
Procedure, shortened: as §1

Cell Line | relative viability (GSK-J4 + Crizotinib; first compound 0.5 µM) | relative viability (GSK-J4 + Crizotinib; first compound 1.581 µM) | relative viability (GSK-J4 + Crizotinib; first compound 5 µM) | relative viability (GSK-J4 + Crizotinib; first compound 15.81 µM) | relative viability (GSK-J4 + Crizotinib; first compound 50 µM) | relative viability (GSK-J4 + Palbociclib; first compound 0.5 µM) | relative viability (GSK-J4 + Palbociclib; first compound 1.581 µM) | relative viability (GSK-J4 + Palbociclib; first compound 5 µM) | relative viability (GSK-J4 + Palbociclib; first compound 15.81 µM) | relative viability (GSK-J4 + Palbociclib; first compound 50 µM) | relative viability (AZ3146 + Vorinostat; first compound 0.08 µM) | relative viability (AZ3146 + Vorinostat; first compound 0.253 µM) | relative viability (AZ3146 + Vorinostat; first compound 0.8 µM) | relative viability (AZ3146 + Vorinostat; first compound 2.53 µM) | relative viability (AZ3146 + Vorinostat; first compound 8 µM) | relative viability (AZ3146 + Bortezomib; first compound 0.08 µM) | relative viability (AZ3146 + Bortezomib; first compound 0.253 µM) | relative viability (AZ3146 + Bortezomib; first compound 0.8 µM) | relative viability (AZ3146 + Bortezomib; first compound 2.53 µM) | relative viability (AZ3146 + Bortezomib; first compound 8 µM)
LOU-NH91 | 0.756 | 0.711 | 0.674 | 0.695 | 0.712 | 0.51 | 0.468 | 0.493 | 0.507 | 0.46 | 0.866 | 0.837 | 0.968 | 1 | 0.832 | 1.02 | 0.489 | 0.533 | 0.478 | 0.51
LU99A | 0.571 | 0.534 | 0.618 | 0.581 | 0.474 | 0.403 | 0.375 |  | 0.383 | 0.344 |  | 0.507 | 0.503 | 0.514 | 0.481 | 0.91 | 1.16 | 1.21 | 1.1 | 1.18
LXF-289 | 0.71 | 0.768 | 0.776 | 0.806 | 0.753 | 0.588 | 0.546 | 0.58 | 0.555 | 0.533 | 0.752 | 0.827 | 0.796 | 0.872 | 0.587 | 0.996 | 1.02 | 0.978 | 1.01 | 0.908
NCI-H23 | 0.553 |  | 0.456 | 0.413 | 0.422 | 0.483 | 0.398 | 0.48 | 0.375 | 0.42 | 0.473 | 0.593 | 0.572 | 0.769 | 0.377 | 1.15 | 1.08 | 1.21 | 1.11 | 0.876
NCI-H322M | 0.976 | 0.779 | 0.828 | 0.91 | 0.83 | 0.493 | 0.446 | 0.497 | 0.435 | 0.538 | 0.798 | 0.839 | 0.916 | 0.904 | 0.849 | 1.29 | 1.18 | 1.18 | 1.29 | 1.18
NCI-H441 | 0.74 | 0.574 | 0.643 | 0.697 | 0.775 | 0.235 | 0.202 | 0.241 | 0.221 | 0.161 | 0.674 | 0.803 | 0.557 | 0.821 | 0.647 | 0.394 | 0.743 | 0.602 | 1.02 | 0.346
NCI-H460 | 0.983 | 0.734 | 0.832 | 0.321 | 0.821 | 0.175 |  | 0.167 | 0.137 | 0.149 | 0.623 | 0.813 | 0.707 | 0.693 | 0.0632 | 1.14 | 0.92 | 1.02 | 0.97 | 0.543
NCI-H520 | 0.737 | 0.633 | 0.846 | 0.805 | 0.553 | 0.231 | 0.113 | 0.223 | 0.167 | 0.163 | 0.588 | 0.7 | 0.685 | 0.783 | 0.537 | 0.355 | 0.677 | 0.614 | 0.673 | 0.583
NCI-H647 | 1.01 | 0.759 | 0.865 | 0.991 | 1.01 | 0.404 | 0.348 | 0.358 | 0.411 | 0.471 | 0.537 | 0.426 | 0.607 | 0.667 | 0.186 | 0.918 | 0.941 | 0.996 | 1.21 | 0.405
NCI-H650 | 0.568 | 0.594 | 0.525 | 0.494 | 0.434 | 0.309 | 0.283 |  | 0.255 | 0.239 | 0.237 | 0.374 | 0.265 | 0.447 | 0.4 | 0.519 | 0.691 | 0.762 | 0.999 | 0.897
NCI-H661 | 0.873 | 0.969 | 1.04 | 0.913 | 0.814 | 0.41 | 0.38 | 0.388 | 0.409 | 0.361 | 0.701 | 0.846 | 0.786 | 0.813 | 0.505 | 0.71 | 0.893 | 0.92 | 0.922 | 0.692
NCI-H727 | 0.782 |  | 1.01 | 0.771 | 0.443 | 0.648 | 0.683 | 0.696 | 0.593 | 0.528 | 1.01 | 1.22 | 1.03 | 1.17 | 1.11 | 1.02 | 0.953 | 0.717 | 0.934 | 1.18
NCI-H838 | 0.85 | 0.845 |  | 0.816 | 0.752 | 0.222 | 0.204 | 0.158 | 0.194 | 0.226 | 0.67 | 0.756 | 0.69 | 0.589 | 0.308 | 0.908 | 0.832 | 0.882 | 0.738 | 0.302
NCI-H1355 | 1.06 | 0.962 | 1.22 | 1.02 | 1.04 | 0.372 | 0.375 | 0.415 | 0.35 | 0.356 | 0.517 | 0.619 | 0.69 | 0.712 | 0.622 | 1.09 | 1.19 | 1.17 | 1.25 | 1.28
NCI-H1437 | 0.76 | 0.917 | 0.924 | 0.897 | 0.436 | 0.293 | 0.278 | 0.332 | 0.38 | 0.205 | 0.774 | 0.771 | 0.842 | 0.839 | 0.538 | 0.497 | 0.441 | 0.469 | 0.535 | 0.479
NCI-H1650 | 0.847 | 0.962 | 0.862 | 0.935 | 0.721 | 0.34 | 0.287 | 0.353 | 0.371 | 0.283 | 0.578 | 0.392 | 0.563 | 0.554 | 0.475 | 0.204 | 0.226 | 0.205 | 0.168 | 0.2
NCI-H1651 | 0.854 | 0.737 | 0.92 | 0.817 | 0.85 | 0.502 | 0.47 | 0.504 | 0.504 | 0.509 | 0.428 | 0.519 | 0.477 | 0.512 | 0.568 | 0.827 | 1.02 | 0.995 | 0.921 | 0.969
NCI-H1666 | 0.925 |  | 1.01 | 0.882 | 0.462 | 0.685 | 0.561 | 0.59 | 0.627 | 0.708 | 0.976 | 1.09 | 1.01 | 1.09 | 0.994 | 0.838 | 0.791 | 0.948 | 0.809 | 0.743
NCI-H1734 | 0.645 | 0.637 | 0.576 | 0.57 | 0.486 | 0.332 | 0.318 | 0.346 | 0.335 | 0.281 | 0.646 | 0.886 | 0.782 | 0.795 | 0.584 | 0.98 | 1.03 | 0.895 | 0.992 | 0.834
NCI-H1755 | 0.841 | 0.821 | 0.891 | 0.733 | 0.772 | 0.43 | 0.336 | 0.456 | 0.447 | 0.408 | 0.71 | 0.804 | 0.599 | 0.789 | 0.765 | 1.03 | 0.996 | 0.921 | 1.04 | 0.667
NCI-H1915 | 0.852 | 0.826 | 0.87 | 0.915 | 0.804 | 0.533 | 0.514 |  | 0.481 | 0.514 | 0.371 | 0.513 | 0.535 | 0.559 | 0.498 | 0.933 | 1.01 | 0.502 | 0.955 | 0.973
NCI-H1975 | 0.928 | 1.02 |  | 0.998 | 1 | 0.543 | 0.498 | 0.613 | 0.524 | 0.634 | 0.67 | 0.736 | 0.735 | 0.697 | 0.327 | 0.36 | 0.425 | 0.383 | 0.384 | 0.256
NCI-H1993 | 0.826 | 0.789 | 0.938 | 0.841 | 0.796 | 0.588 | 0.623 | 0.606 | 0.542 | 0.481 | 0.724 | 1.03 | 1.06 | 1.05 | 0.559 | 1.05 | 1.07 | 1.19 | 1.2 | 0.976
NCI-H2009 | 0.955 | 1 | 0.77 | 1.05 | 0.789 | 0.242 | 0.166 | 0.223 | 0.216 | 0.202 | 0.635 | 0.673 | 0.743 | 0.704 | 0.543 | 0.824 | 1.08 | 1.05 | 1.04 | 0.636
NCI-H2023 | 0.542 | 0.621 | 0.678 | 0.597 | 0.654 | 0.317 | 0.371 | 0.385 | 0.41 | 0.435 | 0.422 | 0.991 | 0.407 | 0.471 | 0.193 | 0.938 | 1.05 | 1.03 | 0.997 | 0.268
NCI-H2085 | 0.839 | 0.609 | 0.617 | 0.794 | 0.906 | 0.451 | 0.434 | 0.386 | 0.495 | 0.494 | 0.75 | 0.786 | 0.779 | 0.789 | 0.701 | 1 | 1.09 | 0.962 | 1.18 | 0.952
NCI-H2087 | 0.685 | 0.767 |  | 0.859 | 0.516 | 0.256 | 0.243 | 0.282 | 0.24 | 0.227 | 0.649 | 0.505 | 0.838 | 0.668 | 0.367 | 0.676 | 0.908 | 0.734 | 0.955 | 0.916
